US9889122B2, “Positive allosteric modulators of nicotinic acetylcholine receptor” (H. Lundbeck A/S, priority 2011, dated 2018)
pEC50: −log10 of the molar value.

How the values were obtained:
human α7 receptor = target: T1, human α7 receptor (Homo sapiens, UniProt P36544); experiment: α7 NNR flux assay (FDSS Ca assay, Calcium-4 dye, positive allosteric modulation of acetylcholine response); format: cell-based; conditions: human α7 receptor stably expressed in rat GH4C1 cell line; acetylcholine 20 μM (~EC100); % modulation relative to reference PNU-120596 set to 100%
T1 construct: host or cells: rat GH4C1 cell line
T1 sequence (P36544 23-502): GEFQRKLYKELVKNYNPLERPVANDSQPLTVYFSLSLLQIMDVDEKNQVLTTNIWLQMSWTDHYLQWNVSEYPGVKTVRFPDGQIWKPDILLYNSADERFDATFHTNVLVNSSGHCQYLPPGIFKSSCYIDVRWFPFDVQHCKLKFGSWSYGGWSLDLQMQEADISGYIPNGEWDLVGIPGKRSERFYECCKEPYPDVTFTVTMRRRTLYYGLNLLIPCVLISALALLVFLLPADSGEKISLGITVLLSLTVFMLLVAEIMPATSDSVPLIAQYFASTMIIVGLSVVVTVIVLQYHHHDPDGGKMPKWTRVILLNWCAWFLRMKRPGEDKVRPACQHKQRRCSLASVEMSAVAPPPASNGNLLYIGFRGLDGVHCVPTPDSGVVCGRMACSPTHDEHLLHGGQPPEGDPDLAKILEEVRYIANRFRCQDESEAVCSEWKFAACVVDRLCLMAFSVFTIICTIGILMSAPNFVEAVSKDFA
Method: The nicotinic acetylcholine receptor α7 is a calcium-permeable ion channel, whose activity can be measured by over expression in mammalian cells or oocytes in this version of the assay, the human α7 receptor is stably expressed in the rat GH4C1 cell line. The assay was used to identify positive allosteric modulators (PAMs) of the α7 receptor. Activation of the channel was measured by loading cells with the calcium-sensitive fluorescent dye Calcium-4 (Assay kit from Molecular Devices), and then measuring real-time changes in fluorescence upon treatment with test compounds.
The cell line ChanClone GH4C1-nAChRalpha7 from Genionics was seeded from frozen stock in 384-well plates in culture media 2-3 days before experiment to form an approximately 80% confluent layer on the day of experiment.
Two or three days before the experiment the cells were seeded in 384 well plates from Greiner bio-one (781946, CELLCOAT, Poly-D-Lysine, black, μClear).
The cells were seeded in 384 well plates with 30 μL/well (30000 cells/well) while stirring the cell suspension or otherwise preventing the cells from precipitating.
The loading buffer was 5% v/v Calcium-4 Kit and 2.5 mM Probenecid in assay buffer.
Culture media were removed from the cell plates and 20 μL loading buffer was added in each well. The cell plates were placed in trays and incubated 90 minutes in the incubator (37° C.). Thereafter the plates were incubated 30 minutes at room temperature, still protected from light.
The assay buffer was HBSS with 20 mM HEPES, pH 7.4 and 3 mM CaCl2.
200 nL 10 mM compound solution in DMSO was diluted in 50 μL assay buffer. The final test concentrations in the cell plates were 20-10-5-2.5-1:25-0.625-0.312-0.156-0.078-0.039 μM. Assay buffer and 3 μM PNU-120596 were used for control.
The agonist acetylcholine was added to a final concentration of 20 μM (˜EC100).
In the FDSS7000 the Ex480-Em540 was measured with 1 second intervals. The baseline was made of 5 frames before addition of test compounds, and 95 frames more were made before addition of acetylcholine. The measurement stopped 30 frames after the 2nd addition. Raw data for each well were collected as “the maximum fluorescence count” in the interval 100-131 seconds and as “the average fluorescence count” in the interval 96-100 seconds. The positive allosteric modulation in the 2nd addition was the enhancement of agonist response with test compound compared to agonist alone.
Results were calculated as % modulation of test compound compared to the reference PNU-120596 set to 100%.

pEC50 (human α7 receptor)	melting point [°C]	SMILES
5.62	151 to 153	C[C@H](NC(=O)[C@H]1C[C@@H]1c1ccccc1)c1ccc(OC2COC2)nc1 [Compound 19, (1S,2S)-2-Phenyl-cyclopropanecarboxylic acid {(S)-1-[6-(oxetan-3-yloxy)-pyridin-3-yl]-ethyl}-amide]
5.70	163 to 165	C[C@H](NC(=O)[C@H]1C[C@@H]1c1ccccc1)c1ccc(OCC#N)nc1 [Compound 20, (1S,2S)-2-Phenyl-cyclopropane carboxylic acid [(S)-1-(6-cyanomethoxy-pyridin-3-yl)-ethyl]-amide]
6.15		[2H]C([2H])([2H])C([2H])([2H])Oc1ccc([C@H](CO)NC(=O)[C@H]2C[C@@H]2c2ccc(F)cc2)cn1 [Compound 34, (1S,2S)-2-(4-Fluoro-phenyl)-cyclopropanecarboxylic acid [(R)-1-(6-(1,1,2,2,2-d5)-ethoxy-pyridin-3-yl)-2-hydroxy-ethyl]-amide]
6.15		[2H]C([2H])([2H])COc1ccc([C@H](CO)NC(=O)[C@H]2C[C@@H]2c2ccc(F)cc2)cn1 [Compound 35, (1S,2S)-2-(4-Fluoro-phenyl)-cyclopropanecarboxylic acid [(R)-1-(6-(2,2,2-d3)-ethoxy-pyridin-3-yl)-2-hydroxy-ethyl]-amide]
5.80		[2H]C([2H])(C)Oc1ccc([C@H](CO)NC(=O)[C@H]2C[C@@H]2c2ccccc2)cn1 [Compound 36, (1S,2S)-2-Phenyl-cyclopropanecarboxylic acid [(R)-1-(6-(1,1-d2)-ethoxy-pyridin-3-yl)-2-hydroxy-ethyl]-amide]
6.15		[2H]C([2H])(C)Oc1ccc([C@H](CO)NC(=O)[C@H]2C[C@@H]2c2ccc(F)cc2)cn1 [Compound 37, (1S,2S)-2-(4-Fluoro-phenyl)-cyclopropanecarboxylic acid [(R)-1-(6-(1,1-d2)-ethoxy-pyridin-3-yl)-2-hydroxy-ethyl]-amide]
6.01		[2H]C([2H])([2H])C([2H])([2H])Oc1ccc([C@H](CO)NC(=O)[C@H]2C[C@@H]2c2ccccc2)cn1 [Compound 38, (1S,2S)-2-Phenyl-cyclopropane carboxylic acid [(R)-1-(6-(1,1,2,2-d5)-ethoxy-pyridin-3-yl)-2-hydroxy-ethyl]-amide]
6.14		[2H]C([2H])([2H])COc1ccc([C@H](CO)NC(=O)[C@H]2C[C@@H]2c2cccc(F)c2)cn1 [Compound 39, (1S,2S)-2-(3-Fluoro-phenyl)-cyclopropanecarboxylic acid [(R)-1-(6-(2,2,2-d3)-ethoxy-pyridin-3-yl)-2-hydroxy-ethyl]-amide]
5.54		O=C(N[C@@H](CO)c1ccc(O[C@@H]2CCOC2)nc1)[C@H]1C[C@@H]1c1ccccc1 [Compound 43, (1S,2S)-2-Phenyl-cyclopropanecarboxylic acid ((R)-2-hydroxy-1-{6-[(R)-(tetrahydro-furan-3-yl)oxy]-pyridin-3-yl}-ethyl)-amide]
5.34		O=C(N[C@@H](CO)c1ccc(O[C@H]2CCOC2)nc1)[C@H]1C[C@@H]1c1ccccc1 [Compound 44, (1S,2S)—N-[(1R)-2-hydroxy-1-[6-[(3S)-tetrahydrofuran-3-yl]oxy-3-pyridyl]ethyl]-2-phenyl-cyclopropanecarboxamide]
6.34		CCOc1ccc([C@H](COC)NC(=O)[C@H]2C[C@@H]2c2ccccc2)cn1 [Compound 46, (1S,2S)-2-Phenyl-cyclopropanecarboxylic acid [(R)-1-(6-ethoxy-pyridin-3-yl)-2-methoxy-ethyl]-amide]
6.00		COC[C@H](NC(=O)[C@H]1C[C@@H]1c1ccccc1)c1ccc(O[C@@H]2CCOC2)nc1 [Compound 47, (1S,2S)—N-[(1R)-2-methoxy-1-[6-[(3R)-tetrahydrofuran-3-yl]oxy-3-pyridyl]-ethyl]-2-phenyl-cyclopropanecarboxamide]
5.77		COC[C@H](NC(=O)[C@H]1C[C@@H]1c1ccccc1)c1ccc(O[C@H]2CCOC2)nc1 [Compound 48, (1S,2S)—N-[(1R)-2-methoxy-1-[6-[(3S)-tetrahydrofuran-3-yl]oxy-3-pyridyl]ethyl]-2-phenyl-cyclopropanecarboxamide]
5.92		COC[C@H](NC(=O)[C@H]1C[C@@H]1c1ccccc1)c1ccc(OC2CCOCC2)nc1 [Compound 49, (1S,2S)-2-Phenyl-cyclopropanecarboxylic acid {(R)-2-methoxy-1-[6-(tetrahydro-pyran-4-yloxy)-pyridin-3-yl]-ethyl}-amide]
5.70		CCOc1ccc([C@H](CO)NC(=O)[C@H]2C[C@@H]2c2ccccc2)nc1 [Compound 52, (1S,2S)-2-Phenyl-cyclopropanecarboxylic acid [(R)-1-(5-ethoxy-pyridin-2-yl)-2-hydroxy-ethyl]-amide]

SMILES	pEC50 (human α7 receptor)	melting point [°C]
O=C(N[C@@H](CO)c1ccc(OC2CCC2)nc1)[C@H]1C[C@@H]1c1ccccc1 [Compound 40, (1S,2S)-2-Phenyl-cyclopropanecarboxylic acid [(R)-1-(6-cyclobutoxy-pyridin-3-yl)-2-hydroxy-ethyl]-amide]	6.05	
O=C(N[C@@H](CO)c1ccc(OC2CCC2)nc1)[C@H]1C[C@@H]1c1cccc(F)c1 [Compound 41, (1S,2S)-2-(3-Fluoro-phenyl)-cyclopropanecarboxylic acid [(R)-1-(6-cyclobutoxy-pyridin-3-yl)-2-hydroxy-ethyl]-amide]	5.80	
O=C(N[C@@H](CO)c1ccc(OC2CCC2)nc1)[C@H]1C[C@@H]1c1ccc(F)cc1 [Compound 42, (1S,2S)-2-(4-Fluoro-phenyl)-cyclopropanecarboxylic acid [(R)-1-(6-cyclobutoxy-pyridin-3-yl)-2-hydroxy-ethyl]-amide]	6.10	
